{"source": "PubChem BioAssay AID1963825", "about": "(Molecular Pharmacology Branch, DTP, NCI, 2024);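 note: luminescence signal used as a surrogate for viable cells; spheroids exposed to drugs for seven days before readout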", "test": "Anticancer human tumor 997537-175-T-J1-PDC patient-derived colon adenocarcinoma cell line growth inhibition [POLQ]", "conditions": "997537-175-T-J1-PDC complex spheroid viability, combination with POLQ inhibitors; for IC50: curve of first compound; for viability, T/C: stronger effect = lower value", "method_in_brief": "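Complex spheroid viability model combining PDC tumour cells with endothelial (HUVEC) and MSC stromal cells. Novobiocin, ART-558 or RP6685 were tested singly and in combination with standard and investigational anticancer drugs. Each was titrated in half-log steps from near clinical Cmax, or from 10 microM where Cmax was unknown.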", "key": {"[1]": {"conditions": "second compound 0.0316 µM, first compound 0.00316 µM"}, "[2]": {"conditions": "second compound 0.0316 µM, first compound 0.01 µM"}, "[3]": {"conditions": "second compound 0.0316 µM, first compound 0.0316 µM"}, "[4]": {"conditions": "second compound 0.0316 µM, first compound 0.1 µM"}, "[5]": {"conditions": "second compound 0.0316 µM, first compound 0.316 µM"}, "[6]": {"conditions": "second compound 0.0316 µM, first compound 1 µM"}, "[7]": {"conditions": "second compound 0.1 µM, first compound 0.00316 µM"}, "[8]": {"conditions": "second compound 0.1 µM, first compound 0.01 µM"}, "[9]": {"conditions": "second compound 0.1 µM, first compound 0.0316 µM"}, "[10]": {"conditions": "second compound 0.1 µM, first compound 0.1 µM"}, "[11]": {"conditions": "second compound 0.1 µM, first compound 0.316 µM"}, "[12]": {"conditions": "second compound 0.1 µM, first compound 1 µM"}, "[13]": {"conditions": "second compound 0.316 µM, first compound 0.00316 µM"}, "[14]": {"conditions": "second compound 0.316 µM, first compound 0.01 µM"}, "[15]": {"conditions": "second compound 0.316 µM, first compound 0.0316 µM"}, "[16]": {"conditions": "second compound 0.316 µM, first compound 0.1 µM"}, "[17]": {"conditions": "second compound 0.316 µM, first compound 0.316 µM"}, "[18]": {"conditions": "second compound 0.316 µM, first compound 1 µM"}, "[19]": {"conditions": "second compound 1 µM, first compound 0.00316 µM"}, "[20]": {"conditions": "second compound 1 µM, first compound 0.01 µM"}, "[21]": {"conditions": "second compound 1 µM, first compound 0.0316 µM"}, "[22]": {"conditions": "second compound 1 µM, first compound 0.1 µM"}, "[23]": {"conditions": "second compound 1 µM, first compound 0.316 µM"}, "[24]": {"conditions": "second compound 1 µM, first compound 1 µM"}, "[25]": {"conditions": "second compound 3.16 µM, first compound 0.00316 µM"}, "[26]": {"conditions": "second compound 3.16 µM, first compound 0.01 µM"}, "[27]": {"conditions": "second compound 3.16 µM, first compound 0.0316 µM"}, "[28]": {"conditions": "second compound 3.16 µM, first compound 0.1 µM"}, "[29]": {"conditions": "second compound 3.16 µM, first compound 0.316 µM"}, "[30]": {"conditions": "second compound 3.16 µM, first compound 1 µM"}, "[31]": {"conditions": "second compound 10 µM, first compound 0.00316 µM"}, "[32]": {"conditions": "second compound 10 µM, first compound 0.01 µM"}, "[33]": {"conditions": "second compound 10 µM, first compound 0.0316 µM"}, "[34]": {"conditions": "second compound 10 µM, first compound 0.1 µM"}, "[35]": {"conditions": "second compound 10 µM, first compound 0.316 µM"}, "[36]": {"conditions": "second compound 10 µM, first compound 1 µM"}}, "data": [{"smiles": "CCc1c2c(nc3ccc(O)cc13)-c1cc3c(c(=O)n1C2)COC(=O)[C@]3(O)CC", "note": "+ COC1C(OC(N)=O)C(O)C(Oc2ccc3c(O)c(NC(=O)c4ccc(O)c(CC=C(C)C)c4)c(=O)oc3c2C)OC1(C)C", "values": [{"measurement": "IC50", "setting": "second compound 0.0316 µM", "result": 20.3, "unit": "nM"}, {"measurement": "IC50", "setting": "second compound 0.1 µM", "result": 19.4, "unit": "nM"}, {"measurement": "IC50", "setting": "second compound 0.316 µM", "result": 19.7, "unit": "nM"}, {"measurement": "IC50", "setting": "second compound 1 µM", "result": 15.3, "unit": "nM"}, {"measurement": "IC50", "setting": "second compound 3.16 µM", "result": 18.6, "unit": "nM"}, {"measurement": "IC50", "setting": "second compound 10 µM", "result": 13.1, "unit": "nM"}, {"measurement": "viability, T/C", "setting": "[1]", "result": 73.2, "unit": "%"}, {"measurement": "viability, T/C", "setting": "[2]", "result": 79.5, "unit": "%"}, {"measurement": "viability, T/C", "setting": "[3]", "result": 33.5, "unit": "%"}, {"measurement": "viability, T/C", "setting": "[4]", "result": 22.7, "unit": "%"}, {"measurement": "viability, T/C", "setting": "[5]", "result": 4.91, "unit": "%"}, {"measurement": "viability, T/C", "setting": "[6]", "result": 4.67, "unit": "%"}, {"measurement": "viability, T/C", "setting": "[7]", "result": 72.3, "unit": "%"}, {"measurement": "viability, T/C", "setting": "[8]", "result": 74.8, "unit": "%"}, {"measurement": "viability, T/C", "setting": "[9]", "result": 32.9, "unit": "%"}, {"measurement": "viability, T/C", "setting": "[10]", "result": 14.3, "unit": "%"}, {"measurement": "viability, T/C", "setting": "[11]", "result": 7.35, "unit": "%"}, {"measurement": "viability, T/C", "setting": "[12]", "result": 6.22, "unit": "%"}, {"measurement": "viability, T/C", "setting": "[13]", "result": 78, "unit": "%"}, {"measurement": "viability, T/C", "setting": "[14]", "result": 73, "unit": "%"}, {"measurement": "viability, T/C", "setting": "[15]", "result": 33.8, "unit": "%"}, {"measurement": "viability, T/C", "setting": "[16]", "result": 14.3, "unit": "%"}, {"measurement": "viability, T/C", "setting": "[17]", "result": 6.7, "unit": "%"}, {"measurement": "viability, T/C", "setting": "[18]", "result": 6.93, "unit": "%"}, {"measurement": "viability, T/C", "setting": "[19]", "result": 88.8, "unit": "%"}, {"measurement": "viability, T/C", "setting": "[20]", "result": 60.1, "unit": "%"}, {"measurement": "viability, T/C", "setting": "[21]", "result": 32.1, "unit": "%"}, {"measurement": "viability, T/C", "setting": "[22]", "result": 19.2, "unit": "%"}, {"measurement": "viability, T/C", "setting": "[23]", "result": 6.28, "unit": "%"}, {"measurement": "viability, T/C", "setting": "[24]", "result": 5.11, "unit": "%"}, {"measurement": "viability, T/C", "setting": "[25]", "result": 88.9, "unit": "%"}, {"measurement": "viability, T/C", "setting": "[26]", "result": 74, "unit": "%"}, {"measurement": "viability, T/C", "setting": "[27]", "result": 29.4, "unit": "%"}, {"measurement": "viability, T/C", "setting": "[28]", "result": 11.4, "unit": "%"}, {"measurement": "viability, T/C", "setting": "[29]", "result": 7.04, "unit": "%"}, {"measurement": "viability, T/C", "setting": "[30]", "result": 7.5, "unit": "%"}, {"measurement": "viability, T/C", "setting": "[31]", "result": 63.9, "unit": "%"}, {"measurement": "viability, T/C", "setting": "[32]", "result": 57.9, "unit": "%"}, {"measurement": "viability, T/C", "setting": "[33]", "result": 26.3, "unit": "%"}, {"measurement": "viability, T/C", "setting": "[34]", "result": 15, "unit": "%"}, {"measurement": "viability, T/C", "setting": "[35]", "result": 6.46, "unit": "%"}, {"measurement": "viability, T/C", "setting": "[36]", "result": 9.61, "unit": "%"}]}, {"smiles": "CCc1c2c(nc3ccc(O)cc13)-c1cc3c(c(=O)n1C2)COC(=O)[C@]3(O)CC", "note": "+ Nc1ccc(C#CCN(C(=O)Cc2ncc(C(F)(F)F)cc2C(F)(F)F)c2ccc(F)cc2)nn1", "values": [{"measurement": "IC50", "setting": "second compound 0.0316 µM", "result": 24.9, "unit": "nM"}, {"measurement": "IC50", "setting": "second compound 0.1 µM", "result": 15.4, "unit": "nM"}, {"measurement": "IC50", "setting": "second compound 0.316 µM", "result": 29.5, "unit": "nM"}, {"measurement": "IC50", "setting": "second compound 1 µM", "result": 20, "unit": "nM"}, {"measurement": "IC50", "setting": "second compound 3.16 µM", "result": 21.9, "unit": "nM"}, {"measurement": "IC50", "setting": "second compound 10 µM", "result": 16.3, "unit": "nM"}, {"measurement": "viability, T/C", "setting": "[1]", "result": 89.5, "unit": "%"}, {"measurement": "viability, T/C", "setting": "[2]", "result": 91.4, "unit": "%"}, {"measurement": "viability, T/C", "setting": "[3]", "result": 39.2, "unit": "%"}, {"measurement": "viability, T/C", "setting": "[4]", "result": 19, "unit": "%"}, {"measurement": "viability, T/C", "setting": "[5]", "result": 6.65, "unit": "%"}, {"measurement": "viability, T/C", "setting": "[6]", "result": 10.3, "unit": "%"}, {"measurement": "viability, T/C", "setting": "[7]", "result": 89.9, "unit": "%"}, {"measurement": "viability, T/C", "setting": "[8]", "result": 60.1, "unit": "%"}, {"measurement": "viability, T/C", "setting": "[9]", "result": 32.7, "unit": "%"}, {"measurement": "viability, T/C", "setting": "[10]", "result": 20.1, "unit": "%"}, {"measurement": "viability, T/C", "setting": "[11]", "result": 6.93, "unit": "%"}, {"measurement": "viability, T/C", "setting": "[12]", "result": 6.26, "unit": "%"}, {"measurement": "viability, T/C", "setting": "[13]", "result": 79.8, "unit": "%"}, {"measurement": "viability, T/C", "setting": "[14]", "result": 65.1, "unit": "%"}, {"measurement": "viability, T/C", "setting": "[15]", "result": 51.6, "unit": "%"}, {"measurement": "viability, T/C", "setting": "[16]", "result": 19.6, "unit": "%"}, {"measurement": "viability, T/C", "setting": "[17]", "result": 6.57, "unit": "%"}, {"measurement": "viability, T/C", "setting": "[18]", "result": 10.8, "unit": "%"}, {"measurement": "viability, T/C", "setting": "[19]", "result": 83.5, "unit": "%"}, {"measurement": "viability, T/C", "setting": "[20]", "result": 70.4, "unit": "%"}, {"measurement": "viability, T/C", "setting": "[21]", "result": 33.9, "unit": "%"}, {"measurement": "viability, T/C", "setting": "[22]", "result": 22.8, "unit": "%"}, {"measurement": "viability, T/C", "setting": "[23]", "result": 5.79, "unit": "%"}, {"measurement": "viability, T/C", "setting": "[24]", "result": 5.67, "unit": "%"}, {"measurement": "viability, T/C", "setting": "[25]", "result": 74.1, "unit": "%"}, {"measurement": "viability, T/C", "setting": "[26]", "result": 66.7, "unit": "%"}, {"measurement": "viability, T/C", "setting": "[27]", "result": 42, "unit": "%"}, {"measurement": "viability, T/C", "setting": "[28]", "result": 16.7, "unit": "%"}, {"measurement": "viability, T/C", "setting": "[29]", "result": 7.19, "unit": "%"}, {"measurement": "viability, T/C", "setting": "[30]", "result": 6.33, "unit": "%"}, {"measurement": "viability, T/C", "setting": "[31]", "result": 76.5, "unit": "%"}, {"measurement": "viability, T/C", "setting": "[32]", "result": 65.5, "unit": "%"}, {"measurement": "viability, T/C", "setting": "[33]", "result": 29, "unit": "%"}, {"measurement": "viability, T/C", "setting": "[34]", "result": 17.8, "unit": "%"}, {"measurement": "viability, T/C", "setting": "[35]", "result": 9.23, "unit": "%"}, {"measurement": "viability, T/C", "setting": "[36]", "result": 3.78, "unit": "%"}]}]}
